target: T1, RNAP CH-σ (B. subtilis RpoC clamp-helix domain and full-length SigA) (Bacillus subtilis, UniProt P37871); assay: split-luciferase (NanoLuc) protein-protein interaction inhibition; format: binding
T1 construct: RpoC clamp-helix domain 220-315 with SmBiT NanoLuc tag (N-terminal, pCU252); full-length SigA with LgBiT NanoLuc tag (C-terminal, pCU251); purified recombinant; tags kept; with RNA polymerase sigma factor SigA

Row | SMILES | IC50 [µM]
1 | Nc1ccccc1Sc1ccc(C(=O)c2ccccc2C(=O)O)cc1[N+](=O)[O-] [C3-001, 2-(4-((2-Aminophenyl)thio)-3-nitrobenzoyl)benzoic Acid] | 6.4 ± 0.71

target: T1, RNAP CH-σ (B. subtilis RpoC clamp-helix domain and full-length SigA); assay: as above; format: biochemical; remark: another data set of the same source
Description: split-luciferase (NanoLuc) protein-protein interaction inhibition on RNAP CH-σ (B. subtilis RpoC clamp-helix domain and full-length SigA)

Row | SMILES | inhibition at 10 µM [%]
2 | Nc1cccc(Sc2ccc(C(=O)c3ccccc3C(=O)O)cc2[N+](=O)[O-])c1 [C3-002, 2-(4-((3-Aminophenyl)thio)-3-nitrobenzoyl)benzoic Acid] | 81.3 ± 4.9
3 | O=C(O)c1ccccc1C(=O)c1ccc(Sc2ccc(Cl)c(Cl)c2)c([N+](=O)[O-])c1 [C3-005, 2-(4-((3,4-Dichlorophenyl)thio)-3-nitrobenzoyl)benzoic Acid] | 81.7 ± 0.9
4 | Nc1ccccc1Sc1ccc(C(=O)c2ccccc2C(=O)O)cc1[N+](=O)[O-] [C3-001, 2-(4-((2-Aminophenyl)thio)-3-nitrobenzoyl)benzoic Acid] | 62.2 ± 2.6
5 | Nc1ccc(Sc2ccc(C(=O)c3ccccc3C(=O)O)cc2[N+](=O)[O-])cc1 [C3-003, 2-(4-((4-Aminophenyl)thio)-3-nitrobenzoyl)benzoic Acid] | 69.1 ± 10.7
6 | Nc1cc(Cl)ccc1Sc1ccc(C(=O)c2ccccc2C(=O)O)cc1[N+](=O)[O-] [C3-004, 2-(4-((2-Amino-4-chlorophenyl)thio)-3-nitrobenzoyl)benzoic Acid] | 60.5 ± 16.5

Source: article PMC6719014, “First-In-Class Inhibitors Targeting the Interaction between Bacterial RNA Polymerase and Sigma Initiation Factor Affect the Viability and Toxin Release of Streptococcus pneumoniae” (Molecules, 2019)
